In patent US12678438B2, “Treatment of cancer with CDK inhibitors” (THE TRUSTEES OF THE UNIVERSITY OF PENNSYLVANIA, priority 2019, dated 2026):

Legend:
AR-positive cells = experiment: Long-term colony formation assay; format: cell-based, human; details: 50 nM THZ1, 12-14 days
Protocol: For the long-term colony formation assay, 10,000-50,000 cells/well in six-well plates (n=3) were seeded and treated with the required drugs/compounds or vehicle for 14 days. Media was refreshed every 4-5 days. Colonies were fixed and stained using 0.5% (w/v) crystal violet (Sigma, C0775) in 20% (v/v) methanol for 30 min, washed with distilled deionized water, and air-dried. To quantify staining, we washed the stained wells with 500 μL 10% acetic acid and using colorimetric assays determined the absorbance at 590 nm using a spectrophotometer (Synergy HT, BioTek Instruments, Vermont-USA).

VCaP CRPC xenograft = experiment: VCaP CRPC mouse xenograft; format: in vivo
Protocol: In vivo efficacy studies were performed in accordance with protocols approved by the Institutional Animal Care and Use Committee (IACUC) at the University of Pennsylvania and in compliance with all regulatory standards. Four to five-week-old male NOD SCID gamma mice (Jackson Lab, 005557) were procured from Jackson Laboratory. In the VCaP experiment, 2×10^6 VCaP prostate cancer cells suspended in 80 μL of RPMI-1640 with 50% Matrigel (BD Biosciences) were implanted subcutaneously into the dorsal flank of the mice. The animals were castrated when the tumor volumes reached approximately 150 mm^3. […] Tumor growth was recorded using digital calipers and tumor volumes were estimated using the formula (π/6) (L×W^2), where L=length and W=width of tumor. Body weight during the study was also monitored. At the end of the treatment regimen the mice were sacrificed and were extracted for further analysis.
Xenograft tumor pieces were fixed in 4% of formaldehyde for 48 h and paraffin embedded. Paraffin embedded sections from the tumors of treated and untreated mice were deparaffinized, rehydrated and subjected to epitope retrieval stained with a phospho-MED1 antibody (1:4000/1:2000), anti-PSA antibody (1:1000), anti-Ki67 (1:500), or anti-cleaved caspase3 antibody (1:1000) followed by peroxidase-based detection and counterstaining with hematoxylin using the Leica Bond Rxm system. Photographs were taken on a Leica DMI6000B inverted light and fluorescent microscope with a 20× objective. images were assessed and quantified in ImageJ.
Whole blood of the xenograft bearing mice was collected with heparinized blood collecting tubes (Fisherbrand, 02-668-10), and cells were removed from plasma by centrifugation for 10 minutes at 2,000 g at 4° C. The plasma was used to detect PSA levels using the Human PSA ELBA Kit (Abeam, ab113327) following the manufacturer's protocol. In brief, we diluted the mice plasma ten time with Assay Diluent A, and LNCaP culturing media was used as a positive control. Serially diluted standards were used for quantification. 100 μL of each sample was loaded on the human PSA specific antibody coated 96-well plate in duplicates and the plate was incubated overnight at 4° C. to allow the PSA presented in samples to bind to the wells. The wells were then washed, and biotinylated anti-Human PSA antibody was added. After washing away unbound biotinylated antibody, HRP-conjugated streptavidin was added into the wells. The wells were again washed and developed with a TMB substrate solution followed by the addition of the stop solution and colorimetric measurement of the intensity at 450 nm. The concentrations of the PSA in the samples were calculated based on the standard curve.

[1] = tested on: MED1 and AR recruitment to the chromatin; experiment: ChIP-seq of genome-wide MED1 and AR binding; format: cell-based, human; details: DHT-treated VCaP and LNCaP, THZ1
Protocol: ChIP was performed using iDeal ChIP-seq Kit for Transcription Factors (Diagenode, C01010170) according to manufacturer's protocol. In brief, the cells were crosslinked with 1% formaldehyde in culture medium for 10 min at room temperature. Cross-linking was terminated by the addition of 1/10 volume 1.25 M glycine for 5 min at room temperature followed by cell lysis and sonication (Bioruptor, Diagenode), resulting in an average chromatin fragment size of 200 bp. Chromatin equivalent to 5×10^6 cells was isolated and incubated with 10 μg antibody overnight at 4° C. (MED1, H3-acetyl K27, AR, and IgG (Diagenode). ChIP-seq libraries were prepared from the ChIP-enriched DNA samples using the TruSeq ChIP Library Preparation Kit (Illumina, IP-202-1012, IP-202-1024) and protocol. In brief, ChIP-enriched DNA (1-10 ng) was converted to blunt-ended fragments. A single A-base was added to fragment ends followed by ligation of Illumina adaptors. The adaptor-modified DNA fragments were enriched by PCR using the Illumina Barcode primers and Phusion DNA polymerase. PCR products were size selected using 3% NuSieve agarose gels (Lonza) followed by gel extraction using QIAEX II reagents (QIAGEN). Libraries were quantified with the Bioanalyzer 2100 (Agilent) and sequenced on the Illumina NextSeq 500 Sequencer (75 nucleotide read length).
Sequencing reads were quality checked with FASTQC (www.bioinformatics.babraham.ac.uk/projects/fastqc) and aligned to the GRCh37 (release 27) genome using the STAR v2.5.1 aligner with default settings. PCR duplicate reads in the aligned bam files were removed using samtools, bam files were converted to CPM normalized bigwig tracks using deeptools, and viewed using the Integrated Genomics Viewer or the UCSC genome browser. Single end reads were extended up to the fragment length (200 bp) along the read direction.
The enrichment peaks for the various transcription factors and histone marks were computed using MACS2, with default settings. Regions found to ubiquitously enriched across a number of next-generation sequencing experiments, also known as the blacklisted peaks (sites.google.com/site/anshulkundaje/projects/blacklists), were excluded in all subsequent analysis.

[2] = residual tumors, 10 mg/kg b.i.d., four weeks

CN(C)C/C=C/C(=O)Nc1ccc(C(=O)Nc2cccc(Nc3ncc(Cl)c(-c4c[nH]c5ccccc45)n3)c2)cc1 [THZ1]
long-term colony formation (AR-positive cells): severely inhibited long-term colony formation
systemic toxicity (VCaP CRPC xenograft; 10 mg/kg b.i.d., four weeks): well tolerated with no treatment-related systemic toxicity observed
tumor p-MED1 levels (VCaP CRPC xenograft; 10 mg/kg b.i.d., four weeks): significant reduction in p-MED1 levels
plasma PSA expression (VCaP CRPC xenograft; 10 mg/kg b.i.d., four weeks, vs vehicle treated mice): significantly reduced
animal weight (VCaP CRPC xenograft; 10 mg/kg twice daily, 4 weeks): does not affect the animal weight
tumor volume (VCaP CRPC xenograft; castrated mice, 10 mg/kg b.i.d. intraperitoneally, four weeks, vs vehicle): dramatic tumor regression
tumor PSA expression (IHC) (VCaP CRPC xenograft; [2]): loss of PSA expression
tumor apoptosis (cleaved caspase-3) (VCaP CRPC xenograft; [2]): increased apoptosis
tumor necrosis (VCaP CRPC xenograft; [2]): necrosis
tumor proliferative activity (KI-67) (VCaP CRPC xenograft; [2]): reduced proliferative activity
genome-wide AR recruitment (ChIP-seq) [1]: significantly limited AR recruitment
genome-wide MED1 recruitment (ChIP-seq) [1]: blocked MED1 recruitment entirely
